{
  "source": "patent EP2601945A1",
  "about": "(Thomale, Jürgen, priority 2011, dated 2013)",
  "key": {"[1]": {"format": "in vivo, mice", "protocol": "Since the protective effect of DPH for the cochlea may be mediated by blocking an ion transporter being relevant for the physiological function of the target cells, an additional experiment was done to verify whether a treatment with DPH alone alters the hearing capability of the mice. For this, five animals measured for their basal auditory sensitivity with the BAER test were treated 24 h later with a single dose of DPH (57 mg/kg), and were re-examined one hour later again by the BAER test."}, "[2]": {"tested_on": "human cancer cell lines established from tumors (lung, bladder, testis)", "assay": "Co-application of cis-platin and DPH to cancer cell lines: DNA adducts by ICA", "format": "cell-based", "conditions": "cis-platin alone or in combination with DPH"}, "[3]": {"conditions": "cis-platin plus DPH, repetitive treatment"}},
  "data": [
    {"smiles": "CN(C)CCOC(c1ccccc1)c1ccccc1", "note": "[DPH, diphenhydramine]", "values": [
      {"measurement": "side effects of prolonged treatment", "setting": "[1]; DPH alone, up to eight applications", "value": "no obvious side effects"},
      {"measurement": "general health status versus cis-platin alone group", "setting": "[1]; [3]", "value": "better"},
      {"measurement": "weight loss versus cis-platin alone group", "setting": "[1]; [3]", "value": "less severe"},
      {"measurement": "effect on the formation of DNA adducts (ICA)", "setting": "[2]", "value": "no inhibitory effect"}
    ]}
  ]
}
